Test results published in patent US7335661B2, “Fungicidal mixtures” (BASF Aktiengesellschaft, priority 2002, dated 2008).

Tests used:
Puccinia recondita = test: Curative activity against wheat leaf rust caused by Puccinia recondita; type: in vivo; conditions: individual active compound, 7 days
Method: (§1) The active compounds, separately or jointly, were prepared as a stock solution with 0.25% by weight of active compound in acetone or DMSO. 1% by weight of the emulsifier Uniperol® EL (wetting agent having emulsifying and dispersing action based on ethoxylated alkylphenols) was added to this solution, and the solution was diluted with water to the desired concentration.
Leaves of potted wheat seedlings of the cultivar “Kanzler” were dusted with spores of leaf rust (Puccinia recondita). For 24 hours, the pots were then placed at 20-22_C in a chamber with high atmospheric humidity (90-95%). During this time, the spores germinated and the germinal tubes penetrated into the leaf tissue. The next day, the infected plants were sprayed to runoff point with an aqueous suspension having the concentration of active compounds stated below. The suspension or emulsion was prepared as described above. After the spray coating had dried on, the test plants were cultivated in a greenhouse at 20-22_C and 65-70% relative atmospheric humidity for 7 days. The extent of rust fungus development on the leaves was then determined.
(§2) Evaluation was carried out by determining the infected leaf areas as a percentage. These percentages were converted into efficacies. The efficacy (W) was calculated as follows using Abbot's formula: W=(1−a/b)·100 • a corresponds to the fungal infection of the treated plants in % and • b corresponds to the fungal infection of the untreated (control) plants in %
(§3) An efficacy of 0 means that the infection level of the treated plants corresponds to that of the untreated control plants; an efficacy of 100 means that the treated plants were not infected.
(§4) The expected efficacies of the mixtures of the active compounds were determined using Colby's formula [R. S. Colby, Weeds 15, 20-22 (1967)] and compared with the observed efficacies. Colby's formula: E=x+y−x·y/100 • E expected efficacy, expressed as % of the untreated control, when using the mixture of the active compounds A and B at the concentrations a and b • x efficacy, expressed as % of the untreated control, when using active compound A at a concentration a • y efficacy, expressed as % of the untreated control, when using active compound B at a concentration b

Botrytis cinerea = test: Activity against gray mold on bellpepper leaves caused by Botrytis cinerea, protective application; type: in vivo; conditions: individual active compound, bellpepper seedlings, 5 days
Method: as §1, §2, §3, §4
Bellpepper seedlings of the cultivar “Neusiedler Ideal Elite” were, after 4-5 leaves were well developed, sprayed to runoff point with an aqueous suspension having the active compound concentration stated below. The next day, the treated plants were inoculated with a spore suspension of Botrytis cinerea which contained 1.7×10^6 spores/ml in a 2% strength aqueous biomalt solution. The test plants were then placed in a climatized chamber at 22-24_C and high atmospheric humidity. After 5 days, the extent of the fungus development on the leaves could be determined visually in %.
Evaluation was carried out analogously to example 1.

[1] = 4 ppm in the spray liquor, wheat seedlings cv. Kanzler

Structure (SMILES) | Efficacy in % of the untreated control (Puccinia recondita; 1 ppm in the spray liquor, wheat seedlings) | Efficacy in % of the untreated control (Puccinia recondita; [1]) | Efficacy in % of the untreated control (Botrytis cinerea; 0.25 ppm in the spray liquor) | Efficacy in % of the untreated control (Botrytis cinerea; 1 ppm in the spray liquor) | Efficacy in % of the untreated control (Botrytis cinerea; 4 ppm in the spray liquor) | Efficacy in % of the untreated control (Puccinia recondita; 0.25 ppm in the spray liquor, wheat seedlings)
CC1CCN(c2c(-c3c(F)cc(F)cc3F)c(Cl)nc3ncnn23)CC1 [I, 5-chloro-7-(4-methylpiperidin-1-yl)-6-(2,4,6-trifluorophenyl)-[1,2,4]triazolo[1,5-a]pyrimidine] | 0% | 56% | 0% | 37% | 68% | –
O=C(Nc1ccccc1-c1ccc(Cl)cc1)c1cccnc1Cl [II-5, boscalid, reference compound] | – | 0% | 0% | 0% | – | 0%
